# Measured values published in PubChem BioAssay AID2060490 (Molecular Pharmacology Branch, DTP, NCI, 2025).
# Where “and” joins values, the source holds several entries; their conditions need not be identical. Equal entries are not always repeated.
# System: 885512-296-R-J2-PDC complex spheroid viability
# Assay: Anticancer human tumor 885512-296-R-J2-PDC patient-derived breast carcinoma cell line growth inhibition [GQUAD]
# Details: for IC50: curve of first compound; for viability, T/C: stronger effect = lower value
# Source text: DNA G-quadruplex Stabilizer Agents in Combinations in Complex Spheroids
# A high-throughput screen of multi-cell type tumor spheroids was designed to identify active combinations of DNA G-quadruplex stabilizer agents and targeted small molecules. Complex spheroids include a stromal component modeled by human endothelial cells (HUVEC) and fibroblasts modeled by human mesenchymal stem cells (MSCs). The concentration ranges selected for each drug and investigational agent were based upon clinically achievable concentrations if the clinical Cmax of the agent was known.
# Compounds. The drugs and investigational agents: pidnarulex (CX-5461; NSC782164), APTO-253 (NSC789042), BRACO-19 (NSC847499), peposertib (NSC802822), ceralasertib (NSC780249), elimusertib (NSC800525), camonsertib (NSC841442), AZD-1390 (NSC803789), olaparib (NSC753686), talazoparib (NSC767125), ART-558 (NSC835418), sotorasib (NSC818433), MRTX-1133 (NSC836407), SN-38 (NSC673596), topotecan (NSC609699), etoposide (NSC141540), doxorubicin (NSC123127), gemcitabine (NSC613327), 5-fluorouracil (NSC19893), paclitaxel (NSC125973), vemurafenib (NSC761431), panobinostat (NSC761190), R-306465 (JNJ-16241199; NSC773264), adavosertib (NSC754352), TP-3654 (NSC805149), carboplatin (NSC241240), KSQ-4279 (NSC840948), and staurosporine (NSC755774) were obtained from the National Cancer Institute (NCI) Developmental Therapeutics Program Chemical Repository (34). The FDA-approved anticancer drug set is available from the NCI Developmental Therapeutics Program. […] The stock solutions were prepared in dimethyl sulfoxide (DMSO, Sigma-Aldrich, St. Louis, MO, cat. D2650) at 800-fold the tested concentration and stored at -70 degrees C prior to their use. All drugs and investigational agents were tested over a range starting from a high concentration at or near the clinical Cmax and decreasing in half-log increments. If the clinical Cmax for an agent had not been determined, the highest concentration tested was 10 microM.
# 2.3 Cell Culture. All cells were maintained in an incubator at 37 degrees C and 5% CO2 with 95% humidity. The PDC lines were cultured according to standard operating procedures established by the NCI PDMR. All PDCs were thawed and cultured in Matrigel-coated flasks prepared with a working solution of 1X Ham's F-12 nutrient mix, without supplementation (Invitrogen, cat. 11765054), 100 U/mL penicillin-streptomycin (Invitrogen, cat. 15140122), and 2.5% Matrigel (Corning Inc., cat. 354248) for the first three passages. The 857933-349-R-J2-PDC line was cultured in 6C/Colon 1B media, which includes advanced DMEM/F-12 (Thermo Fisher Scientific, cat. 12634028), 10 mM HEPES (Thermo Fisher Scientific, cat. 15630080), 1X GlutaMAX supplement (Thermo Fisher Scientific, cat. 35050061), 0.1 mg/mL primocin (InvivoGen, cat. ant-pm-2), 10% defined fetal bovine serum, heat inactivated (HyClone Laboratories Inc., cat. SH30070.03HI), 50% L-WRN conditioned media (ATCC, cat. CRL-3276), 1.25 mM N-Acetyl-L-cysteine (Sigma-Aldrich, cat. A9165), 10 mM nicotinamide (Sigma-Aldrich, cat. N0636), 1X B-27 supplement (Thermo Fisher Scientific, cat. 17504044), 1X N-2 supplement (Thermo Fisher Scientific, cat. 17502048), 10 microM Y-27632 dihydrochloride (Tocris Bioscience, cat. 1254), and 50 ng/mL human EGF recombinant protein (Thermo Fisher Scientific, cat. PHG0311). The 485176-168-R4-J1-PDC line was cultured in Panc media, which includes all 6C/Colon 1B media components plus 100 ng/mL human FGF-10 (Thermo Fisher Scientific, cat. 100-26), 500 nM SB-431542 (Selleckchem, cat. S1067), and gastrin (Tocris, cat. 3006).
# […]
# [1] = second compound 0.0316 µM, first compound 0.0316 µM
# [2] = second compound 0.0316 µM, first compound 0.1 µM
# [3] = second compound 0.0316 µM, first compound 0.316 µM
# [4] = second compound 0.0316 µM, first compound 1 µM
# [5] = second compound 0.0316 µM, first compound 3.16 µM
# [6] = second compound 0.0316 µM, first compound 10 µM
# [7] = second compound 0.1 µM, first compound 0.0316 µM
# [8] = second compound 0.1 µM, first compound 0.1 µM
# [9] = second compound 0.1 µM, first compound 0.316 µM
# [10] = second compound 0.1 µM, first compound 1 µM
# [11] = second compound 0.1 µM, first compound 3.16 µM
# [12] = second compound 0.1 µM, first compound 10 µM
# [13] = second compound 0.316 µM, first compound 0.0316 µM
# [14] = second compound 0.316 µM, first compound 0.1 µM
# [15] = second compound 0.316 µM, first compound 0.316 µM
# [16] = second compound 0.316 µM, first compound 1 µM
# [17] = second compound 0.316 µM, first compound 3.16 µM
# [18] = second compound 0.316 µM, first compound 10 µM
# [19] = second compound 1 µM, first compound 0.0316 µM
# [20] = second compound 1 µM, first compound 0.1 µM
# [21] = second compound 1 µM, first compound 0.316 µM
# [22] = second compound 1 µM, first compound 1 µM
# [23] = second compound 1 µM, first compound 3.16 µM
# [24] = second compound 1 µM, first compound 10 µM
# [25] = second compound 3.16 µM, first compound 0.0316 µM
# [26] = second compound 3.16 µM, first compound 0.1 µM
# [27] = second compound 3.16 µM, first compound 0.316 µM
# [28] = second compound 3.16 µM, first compound 1 µM
# [29] = second compound 3.16 µM, first compound 3.16 µM
# [30] = second compound 3.16 µM, first compound 10 µM
# [31] = second compound 10 µM, first compound 0.0316 µM
# [32] = second compound 10 µM, first compound 0.1 µM
# [33] = second compound 10 µM, first compound 0.316 µM
# [34] = second compound 10 µM, first compound 1 µM
# [35] = second compound 10 µM, first compound 3.16 µM
# [36] = second compound 10 µM, first compound 10 µM
# 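Further: spheroids exposed to the compounds for one week.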
# 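Wherever viability, T/C is given: percent of tumor spheroid viability relative to DMSO vehicle control wells.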
structure (smiles),measurement,setting,value
COc1cc(C2c3cc4c(cc3C(OC3OC5COC(C)OC5C(O)C3O)C3COC(=O)C23)OCO4)cc(OC)c1O (stereo unspecified) + Cc1[nH]c2ccc(F)cc2c1-c1nc2c3cccnc3c3ncccc3c2[nH]1,IC50,second compound 0.0316 µM,0.739 µM
same,IC50,second compound 0.1 µM,0.806 µM
same,IC50,second compound 0.316 µM,0.715 µM
same,IC50,second compound 1 µM,0.578 µM
same,IC50,second compound 3.16 µM,< 0.0316 µM
same,IC50,second compound 10 µM,< 0.0316 µM
same,"viability, T/C",[1],96.3%
same,"viability, T/C",[2],86.7%
same,"viability, T/C",[3],77.3%
same,"viability, T/C",[4],41%
same,"viability, T/C",[5],13.6%
same,"viability, T/C",[6],10.1%
same,"viability, T/C",[7],117%
same,"viability, T/C",[8],91.5%
same,"viability, T/C",[9],94.2%
same,"viability, T/C",[10],39.9%
same,"viability, T/C",[11],11.4%
same,"viability, T/C",[12],10%
same,"viability, T/C",[13],91.8%
same,"viability, T/C",[14],98.4%
same,"viability, T/C",[15],82.1%
same,"viability, T/C",[16],36.1%
same,"viability, T/C",[17],16.5%
same,"viability, T/C",[18],8.49%
same,"viability, T/C",[19],70.5%
same,"viability, T/C",[20],76%
same,"viability, T/C",[21],62.3%
same,"viability, T/C",[22],37.9%
same,"viability, T/C",[23],13.7%
same,"viability, T/C",[24],6.78%
same,"viability, T/C",[25],21.3%
same,"viability, T/C",[26],13.6%
same,"viability, T/C",[27],15.8%
same,"viability, T/C",[28],7.13%
same,"viability, T/C",[29],4.87%
same,"viability, T/C",[30],2.93%
same,"viability, T/C",[31],1.61%
same,"viability, T/C",[32],3.08%
same,"viability, T/C",[33],1.52%
same,"viability, T/C",[34],1.53%
same,"viability, T/C",[35],1.51%
same,"viability, T/C",[36],1.37%
CC(C)n1c(=O)n(C)c2cnc3cc(F)c(-c4ccc(OCCCN5CCCCC5)nc4)cc3c21 + CN(C)c1ccc(Nc2c3ccc(NC(=O)CCN4CCCC4)cc3nc3cc(NC(=O)CCN4CCCC4)ccc23)cc1,IC50,second compound 0.0316 µM,> 10 µM
same,IC50,second compound 0.1 µM,> 10 µM
same,IC50,second compound 0.316 µM,> 10 µM
same,IC50,second compound 1 µM,> 10 µM
same,IC50,second compound 3.16 µM,0.654 µM
same,IC50,second compound 10 µM,< 0.0316 µM
same,"viability, T/C",[1],89.9%
same,"viability, T/C",[2],81.4%
same,"viability, T/C",[3],97.1%
same,"viability, T/C",[4],84.5%
same,"viability, T/C",[5],118%
same,"viability, T/C",[6],98.2%
same,"viability, T/C",[7],81.3%
same,"viability, T/C",[8],87.5%
same,"viability, T/C",[9],82.2%
same,"viability, T/C",[10],95.7%
same,"viability, T/C",[11],108%
same,"viability, T/C",[12],72.4%
same,"viability, T/C",[13],83.4%
same,"viability, T/C",[14],69.8%
same,"viability, T/C",[15],84.3%
same,"viability, T/C",[16],92.9%
same,"viability, T/C",[17],118%
same,"viability, T/C",[18],78.6%
same,"viability, T/C",[19],84%
same,"viability, T/C",[20],86.3%
same,"viability, T/C",[21],94.5%
same,"viability, T/C",[22],87.9%
same,"viability, T/C",[23],94.8%
same,"viability, T/C",[24],54.3%
same,"viability, T/C",[25],75.3%
same,"viability, T/C",[26],70.4%
same,"viability, T/C",[27],52%
same,"viability, T/C",[28],47.5%
same,"viability, T/C",[29],35.4%
same,"viability, T/C",[30],18.8%
same,"viability, T/C",[31],16.4%
same,"viability, T/C",[32],14.6%
same,"viability, T/C",[33],13.3%
same,"viability, T/C",[34],10.1%
same,"viability, T/C",[35],9.73%
same,"viability, T/C",[36],2.68%
CC1COCCN1c1cc(C2(S(C)(=N)=O)CC2)nc(-c2ccnc3[nH]ccc23)n1 (stereo unspecified) + Cc1[nH]c2ccc(F)cc2c1-c1nc2c3cccnc3c3ncccc3c2[nH]1,IC50,second compound 0.0316 µM,0.838 µM
same,IC50,second compound 0.1 µM,0.868 µM
same,IC50,second compound 0.316 µM,0.555 µM
same,IC50,second compound 1 µM,0.147 µM
same,IC50,second compound 3.16 µM,< 0.0316 µM
same,IC50,second compound 10 µM,< 0.0316 µM
same,"viability, T/C",[1],103%
same,"viability, T/C",[2],105%
same,"viability, T/C",[3],85.6%
same,"viability, T/C",[4],44.9%
same,"viability, T/C",[5],7.65%
same,"viability, T/C",[6],5.02%
same,"viability, T/C",[7],125%
same,"viability, T/C",[8],108%
same,"viability, T/C",[9],92.1%
same,"viability, T/C",[10],46.1%
same,"viability, T/C",[11],6.65%
same,"viability, T/C",[12],3.91%
same,"viability, T/C",[13],102%
same,"viability, T/C",[14],94.2%
same,"viability, T/C",[15],72%
same,"viability, T/C",[16],28%
same,"viability, T/C",[17],4.02%
same,"viability, T/C",[18],4.62%
same,"viability, T/C",[19],80.4%
same,"viability, T/C",[20],55.6%
same,"viability, T/C",[21],37%
same,"viability, T/C",[22],5.55%
same,"viability, T/C",[23],3.67%
same,"viability, T/C",[24],3.74%
same,"viability, T/C",[25],10.4%
same,"viability, T/C",[26],5.19%
same,"viability, T/C",[27],3.19%
same,"viability, T/C",[28],1.97%
same,"viability, T/C",[29],1.51%
same,"viability, T/C",[30],1.38%
same,"viability, T/C",[31],1.16%
same,"viability, T/C",[32],1.65%
same,"viability, T/C",[33],1.5%
same,"viability, T/C",[34],1.57%
same,"viability, T/C",[35],1.94%
same,"viability, T/C",[36],1.43%
Cc1[nH]c2ccccc2c1CCNCc1ccc(/C=C/C(=O)NO)cc1,"viability, T/C",compound 0.000999 µM,108% and 90.8% and 92.3%
same,"viability, T/C",compound 0.00316 µM,93.8% and 86.2% and 86.1%
same,"viability, T/C",compound 0.00999 µM,96.1% and 71.2% and 73.6%
same,"viability, T/C",compound 0.0316 µM,112% and 42% and 57.7%
same,"viability, T/C",compound 0.0999 µM,94.9% and 25.6% and 28.9%
